The values that follow come from patent publication US11331290B2, “Niclosamide for the treatment of cancer metastasis” (Max-Delbrück-Centrum für Molekulare Medizin in der …, priority 2011, dated 2022).

Format in all cases: cell-based, human
Settings in all cases: 1 μM, 24 h

One assay relates to LS174T cells. Description: Boyden chamber invasion assay (Matrigel). On the procedure:
(§1) HCT116, SW620, LS174T, SW480 and DLD-1 cells were used in cell migration and invasion analysis performed with Boyden chamber assay. 400 μL containing 2.5×10^5 cells were seeded into each transwell chamber with filter membranes of 12.0 μm pore size (Millipore, Schwalbach, Germany). For invasion filter membranes were coated with 50 μL Matrigel (diluted 1:3 in RPMI-1640; BD Biosciences) 10 minutes before cells were seeded. Fresh medium (600 μL) were added to the bottom chamber and cells were allowed to attach to the insets for 15 hours. Both chambers were treated with 1 μM niclosamide or the respective amount of DMSO and incubated at 37° C. and 5% CO2 in a humidified incubator for 24 hours. Afterwards insets were removed and cells that had migrated through the membrane to the lower chamber were trypsinized and counted in a Neubauer chamber (LO-Laboroptik, Bad Homburg, Germany). Each well was counted ten times. Each migration or invasion experiment was performed in duplicate. The average number of migrated or invaded cells was determined for at least three independent experiments.
(§2) (A) S100A4 expression under niclosamide treatment. Cells were treated with 1 μM niclosamide for 24 hours. S100A4 expression was analyzed with qRT-PCR and immunoblot. (B) Cell migration under niclosamide treatment. Migration rates of cells treated with 1 μM niclosamide for 24 hours were determined in a Boyden chamber assay values were normalized to solvent-treated SW620 cells. (C) Cell invasion under niclosamide treatment. Cells were seeded onto Matrigel covered transwells and treated with 1 μM niclosamide for 24 hours. Invaded cells in the lower chamber were counted and normalized to solvent-treated SW620 cells. Differences in solvent vs. niclosamide-treated cells were analyzed by Student's t test. Data represent mean±SE of at least two independent experiments each performed in triplicate. (D) Directed migration under niclosamide treatment. Wounds of 300 μM width were set in a 60% confluent monolayer of cells on day 1. Cells were treated daily with 1 μM niclosamide for 4 days. Microphotographs of day 4 are presented here with black lines indicating margins of the wound on day 1; scale bar represents 200 μM. Directed migration data shown are representatives of three independent experiments. (E) Adhesive cell proliferation under niclosamide treatment. Cells were treated daily with 1 μM niclosamide. The amount of viable cells per well was determined by MTT assay. (F) Anchorage-independent cell growth under niclosamide treatment. Cells were plated as single cells into 0.33% (w/v) agarose and treatment (solvent or 1 μM niclosamide) containing medium. After 7 days colonies were visualized by light microscopy at 10× (overview) and 40× (single colony) magnification. (G) Quantification of colonies formed. Number of colonies (of more than 4 cells) was counted and normalized to solvent-treated SW620 cells. Differences in solvent vs. niclosamide-treated cells were analyzed by Student's t test. Data represent mean mean±SE of at least two independent experiments each performed in duplicates.

A further assay has as its system DLD-1 cells. Description: Boyden chamber invasion assay (Matrigel). On the procedure: as §1, §2
In a further assay the test system is SW620 cells. Description: Boyden chamber invasion assay (Matrigel). On the procedure: as §1, §2
A further assay has as its system SW480 cells. Description: Boyden chamber invasion assay (Matrigel). On the procedure: as §1, §2
The subject of the next assay is HAB-68mut cells. Description: Boyden chamber transwell migration assay. On the procedure:
as §1
For WNT pathway analysis the following cells were applied: HCT116 cells (heterozygous for gain-of-function-mutated CTNNB1; wt/mut), HAB-68mut cells (deletion mutant of HCT116, expressing only gain-of-function-mutated CTNNB1: −/mut) and HAB-92 wt cells (deletion mutant of HCT116, expressing only wild-type CTNNB1: wt/−). (A) CTNNB1 genotype dependent effect of niclosamide on LEF/TCF transcription factor reporter gene expression. Cells were treated with 1 μM niclosamide for 24 hours. Reporter gene expression was determined by luciferase activity measurement. For each condition and cell line TOPflash expression was normalized to FOPflash expression. (B) CTNNB1 genotype dependent effect of niclosamide on S100A4 expression. Cells were treated with 1 μM niclosamide for 24 hours. S100A4 expression was analyzed by qRT-PCR and immunoblot. (C) CTNNB1 genotype dependent effect of niclosamide on migration rates. Cells were treated with 1 μM niclosamide for 24 hours and cell migration was determined by Boyden chamber assay. Data represents mean±SE of at least three independent experiments. Differences were analyzed by Student's t test (n.s.; not statistically significant). (D) Nuclear localization of CTNNB1 under niclosamide treatment. Nuclear extracts of HCT116 cells treated with the indicated concentrations of niclosamide for 18 hours were analyzed by immunoblot. (E) Effect of niclosamide on CTNNB1/TCF complex. Nuclear extracts of HCT116 cells treated with the indicated concentrations of niclosamide for 18 hours were analyzed by EMSA for the TCF-binding site of the S100A4 promoter. Supershift was performed by addition of a monoclonal anti-CTNNB1 antibody. […]

For the compound `O=C(Nc1ccc([N+](=O)[O-])cc1Cl)c1cc(Cl)ccc1O` [niclosamide, 2′,5-dichloro-4′-nitrosalicylanilide], the figures for the “invasion, mean difference control vs niclosamide” value in the assay with LS174T cells, in the assay on SW620 cells and in the assay with SW480 cells were 39.5%, 74.9% and 34.9%, respectively. Moreover, the “cell invasion, mean % (normalized to solvent-treated SW620 cells)” value with LS174T cells (solvent control 63.2%) was found to be 23.6%; in the assay with SW620 cells (solvent control 100.0%), 25.1%; in the assay with SW480 cells (solvent control 47.7%), 12.8%. In addition, in the assay with DLD-1 cells, the invasion rate result is on record as “not affected”. In the assay with HAB-68mut cells, the “migration rate, mean difference control vs niclosamide” value amounted to 0.91. For the same compound, the “migration rate, mean (relative to HCT116 control)” value with HAB-68mut cells (control 1.30) turned out to be 0.39.
